Data set [1] has as its system NHIK 3025 cells. Kind of data set: Cell survival (colony formation) after 24 hr treatment. The settings on record: Homo sapiens, NHIK3025, 24 h, read-out: Cell survival of cells treated for 24 hr. It counts as cell-based. From the text: (§1) Human cells of the established line NHIK 3025, originating from a cervical carcinoma in situ (Nordbye, K., and Oftebro, R. Exp. Cell Res., 58: 458, 1969), Oftebro, R., and Nordbye, K., Exp. Cell Res., 58: 459-460, 1969) were cultivated in Medium E2a (Puck, T.T. et al., J. Exp. Med., 106:145-165, 1957) supplemented with 20% human (prepared at the laboratory) and 10% horse serum (Grand Island Biological Co.). The cells are routinely grown as monolayers in tissue culture flasks.
(§2) The cells were kept in continuous exponential growth by frequent reculturing, i.e., every second and third day, and synchronized cell populations with a high degree of synchrony were obtained by repeated selection of mitotic cells (Pettersen, E. O. et al, Cell Tissue Kinet., 10: 511-522, 1977). During the synchronization procedure, the cells were kept in Medium E2a, and the whole experiment took place in a walk-in incubator at 37° C. Under growth conditions as used here, the NHIK 3025 cells have a medium cell-cycle time of ~18 hr, with medium G1, S1 and G2 durations of ~7, ~8, and ~2.5 hr, respectively.
For measurement of cell survival, appropriate numbers of cells were seeded in plastic Petri dishes (.phi.=5 cm). The number of cells seeded into each dish was adjusted such that the number of surviving cells would be approximately 150 per dish. While exponentially growing (asynchronous) cells were trypsinized before seeding, synchronized cells were seeded immediately after selection. After about 2 hr, the cells had attached to the bottom of the dishes, and the treatment was started by replacing the medium with medium containing the appropriate drug concentration. After the desired time of treatment, the drug-containing medium was removed, and fresh medium was added. The dishes were rinsed once with the same medium as was to be added on addition or removal of drug. After 10 to 12 days at 37° C. in a CO2 incubator, the cells were fixed in ethanol and stained with methylene blue before the colonies were counted.
The cytotoxic effect of benzaldehyde and of deuterobenzaldehyde-d1 was tested on asynchronous, exponentially growing NHIK 3025 cells by counting the number of cells able to form colonies after 24 hr treatment in Petri dishes. In Table 1 the results represent 2 different, independent experiments where the numbers give the mean fraction of surviving cells from 10 parallel dishes (± standard error).
Fraction of cells surviving 24 hr treatment with benzaldehyde or deuterobenzaldehyde - d1 in Petri dishes. (The values represent the mean±standard error from 10 different dishes.)

Data set [2] relates to NHIK 3025 cells. The experiment in a line: Protein synthesis rate ((3H)valine incorporation). It counts as cell-based, human. The settings on record: 3.2 mM, Table 8.
Text: as §1, §2
The rate of protein synthesis was calculated as described previously (Ronning, O. W. et al., J. Cell Physiol., 107: 47-57, 1981). Briefly, cellular protein was labeled to saturation during a 2-day preincubation with (^14 C)valine of constant specific radioactivity (0.5 Ci/mol) prior to the experiment. This was achieved by using a high concentration of valine so that the dilution of (^14 C)valine by intracellular valine and by proteolytically generated valine will be negligible (Ronning, O. W., et al. Exp. Cell Res. 123: 63-72, 1979), thus keeping the specific radioactivity at a constant level. The rate of protein synthesis was calculated from the incorporation of (3H)valine of constant specific activity. The incorporation measurements were related to the total of (^14 C) radioactivity in protein at the beginning of the respective measurement periods and expressed as the percentage per hr (Ronning, O. W. et al, J. Cell, Physiol. 107: 47-57, 1981).
[…] The last measurements were done to test the reversibility of the drugs. Drug concentration: 3.2 mM.

The nature of data set [3]: Concentration of BG or BG-d1 in blood samples after iv injection (HPLC). The settings on record: for concentration at 0 h: 0 minutes (estimated); for concentration at 0.25 h: 15 minutes; for concentration at 0.5 h: 30 minutes; for half-life: read-out: half-life in vivo. It counts as in vivo, male Wistar rats. The procedure:
Measurement of concentration of 4,6-O-benzylidene-D-glucose (BG) or 4,6-O-deuterobenzylidene-d1 -D-glucose (BG-d1) in blood samples (Table 5).
(§3) Blood samples were taken from male Wistar rats immediately before and at several intervals after intravenous injection of BG or BG-d1. Blood serum was separated by centrifugation. Equal amounts of blood serum and HPLC-grade acetonitrile were mixed and centrifuged at 13,000 rpm (15,000×g) for 5 minutes. Samples were then analyzed for BG or BG-d1 content by High Performance Liquid Chromatography (HPLC). Samples were placed in an autosampler programmed for replicate injections of […] each onto a 4.6×250 mm LC18 HPLC column. The column was eluted with 45% aqueous methanol delivered at 1 ml/min. BG or BG-d1 were detected by using a spectrofluorometer set at excitation and emission wavelengths of 255 and 283 nm, respectively. The slit width used was 10 nm. Quantitation of the amount of BG or BG-d1 in serum samples was performed with an electronic integrator calibrated with standard solutions of BG or BG-d1 in the mobile phase (Pettersen et al., Anticancer Res., 6; 147-152, 1986).
We have compared the metabolism in rats of BG as well as of deuterated BG (BG-d1). In Table 5 the serum concentration of BG or BG-d1 is shown at various time points after a single iv injection of each drug, respectively.

Data set [4] is described as follows: BG or BG-d1 metabolites in blood samples after iv injection (HPLC peak height). It counts as in vivo, male Wistar rats. The settings on record: rat. The procedure: as §3
Measurement of BG or BG-d1 metabolites in blood samples (Table 6)
HPLC of blood samples was performed as indicated above. Relative amounts of BG- or BG-d1 -metabolite were determined by peak height analysis. The peak height from the electronic integrator (in microvolts) of samples taken 30 minutes after iv injection of BG, or 60 minutes after iv injection of BG-d1 were normalized to 1. All other metabolite peaks were compared with these values.
At the same time as BG or BG-d1 metabolism was being determined, a separate metabolite peak appeared in HPLC chromatograms. The increase in BG- and BG-d1 -metabolite and subsequent clearance was measured.

Data set [5] in a line: Stability in vitro. The data set is classed as in vitro ADME.
Data set [6] deals with NHIK 3025 cells. The settings on record: Pettersen et al. 1983; cited from earlier work.
Where [7] appears, read: asynchronous cells, 3 hr treatment, pulse 0-1 hr, during treatment, control 5.7 ± 0.5.
The mark [8] stands for this setting: asynchronous cells, 3 hr treatment, pulse 2-3 hr, during treatment, control 5.7 ± 0.5.
Where [9] appears, read: synchronized cells, 22 hr treatment, pulse 21-22 hr, during treatment, control 5.3 ± 0.2.
Where [10] appears, read: synchronized cells, 22 hr treatment, pulse 23-24 hr, after treatment, control 5.3 ± 0.2.
Setting [11] is: serum, rat, iv, read-out: Amount of unmetabolized drug in blood samples.

“Also recorded” adds a separate entry of the source.

With `[2H]C1(c2ccccc2)OC[C@H]2OC(O)[C@H](O)[C@@H](O)[C@@H]2O1` (stereo partly drawn) [BG-d1, 4,6-O-deuterobenzylidene-d1 -D-glucose], in data set [1], the viability at 6400 µM was found to be 33 ± 7% and the viability at 12800 µM was determined as 0.8 ± 0.3%. The compound also displayed a Protein synthesis in data set [2] (setting [7]) of 3.0 ± 0.3 %/hr. The same compound had a Protein synthesis in data set [2] (setting [8]) of 3.4 ± 0.3 %/hr. Also, the Protein synthesis in data set [2] (setting [9]) turned out to be 4.6 ± 0.2 %/hr. The compound also displayed a Protein synthesis in data set [2] (setting [10]) of 5.4 ± 0.1 %/hr. In data set [3] (rat, iv, compared with BG), the “Metabolism and clearance from serum (in words)” value was “slower than that of the undeuterated compound; also recorded: clearly slower metabolism and clearance from serum”. In data set [3] (setting [11]), the concentration at 0 h was 345 µM, the concentration at 2 min was found to be 220 ± 20 µM, the concentration at 5 min is 160 ± 20 µM and the concentration at 10 min was found to be 140 ± 20 µM. Besides, in data set [3] (setting [11]), the concentration at 0.25 h is 100 ± 20 µM, the concentration at 20 min was found to be 97 ± 3 µM and the concentration at 0.5 h worked out at 66 ± 15 µM. The concentration at 1 h in data set [3] (serum, rat, iv, 60 minutes, N.F. = Not Found, read-out: Amount of unmetabolized drug in blood samples) was 10 ± 5 µM. Besides, the half-life – broadly, how long it takes for the measured level to halve – in data set [3] (serum, rat, iv) was approximately 15 min. Also, the “Clearance (or further metabolization) of metabolite (in words)” value in data set [4] (iv, BG versus BG-d1) is “slower clearance kinetics than that formed from BG”.
Regarding `OC1O[C@@H]2COC(c3ccccc3)O[C@H]2[C@H](O)[C@H]1O` (stereo partly drawn) [BG, 4,6-O-benzylidene-D-glucose], in data set [1], the viability at 6400 µM worked out at 30 ± 5% and the viability at 12800 µM came to 0.78 ± 0.18%. The same compound came in with a Protein synthesis in data set [2] (setting [7]) of 2.9 ± 0.7 %/hr. The compound further yielded a Protein synthesis in data set [2] (setting [8]) of 2.9 ± 0.1 %/hr. Also, in data set [2] (setting [9]), the Protein synthesis was determined as 4.8 ± 0.5 %/hr. Further, the Protein synthesis in data set [2] (setting [10]) worked out at 5.5 ± 0.1 %/hr. Besides, in data set [3] (in vivo), the “half-life in vivo (in words)” value is “relatively short half-life in vivo”. For the same compound, in data set [3] (rat, iv, 60 minutes, N.F. = Not Found), the “Amount of unmetabolized drug in blood samples” value is reported as “N.F”. Moreover, in data set [3] (setting [11]), the concentration at 0 h was 345 µM, the concentration at 2 min was determined as 230 ± 16 µM, the concentration at 5 min was found to be 110 ± 10 µM and the concentration at 10 min was found to be 96 ± 15 µM. Further, in data set [3] (setting [11]), the concentration at 0.25 h stood at 66 ± 18 µM, the concentration at 20 min was 48 ± 11 µM and the concentration at 0.5 h is 33 ± 8 µM. The concentration at 25 min in data set [3] (serum, rat, iv, 25 minutes, read-out: Amount of unmetabolized drug in blood samples) amounted to 40 ± 5 µM. Further, in data set [3] (serum, rat, iv), the half-life was approximately 5 min. In data set [4] (30 minutes after iv injection, BG sample normalized to 1), the “Relative amount of metabolite” value turned out to be 1.00. In addition, the “Relative amount of metabolite” value in data set [4] (45 minutes after iv injection, maximum peak = 1) was found to be 0.927 ± 0.008. Besides, in data set [5], the “Period over which compound is stable in vitro” value is on record as “at least 24 hr”. Further, the “Protein synthesis inhibition (in words)” value in data set [6] was “only protein synthesis inhibition is known to appear during treatment with BG”.

(Values after patent publication US4874780A, “Anticancer compounds” (Norsk Hydro a.s., priority 1987, dated 1989).)
